Data published in ChEMBL document CHEMBL3046786, “Synthesis of piperazinyl benzothiazole/benzoxazole derivatives coupled with 1,3,4-oxadiazole-2-thiol: novel hybrid heterocycles as anticancer agents” (Med Chem Res, 2013).

Legend:
Format in all cases: functional, cell-based
HepG2 = test: Anticancer activity against Homo sapiens (human) HepG2 cells assessed as inhibition of cell viability after 72 hr by MTT assay; conditions: HepG2, 72 h
HeLa = test: Anticancer activity against Homo sapiens (human) HeLa cells assessed as inhibition of cell viability after 72 hr by MTT assay
A549 = test: Anticancer activity against Homo sapiens (human) A549 cells assessed as inhibition of cell viability after 72 hr by MTT assay; conditions: A549, 72 h
A-431 = test: Anticancer activity against Homo sapiens (human) A431 cells assessed as inhibition of cell viability after 72 hr by MTT assay; conditions: A-431, 72 h
MCF7 = test: Anticancer activity against Homo sapiens (human) MCF7 cells assessed as inhibition of cell viability after 72 hr by MTT assay; conditions: MCF7, 72 h

Row | Compound | IC50 (HepG2) | IC50 (HeLa) | IC50 (A549) | IC50 (A-431) | IC50 (MCF7)
1 | Brc1ccc(-c2nnc(SCCCN3CCN(c4nc5ccccc5s4)CC3)o2)cc1 | 103 µM | 243 µM | 62.5 µM | 51.6 µM | 96.3 µM
2 | O=C(NCc1nnc(SCCCN2CCN(c3nc4ccccc4o3)CC2)o1)c1ccccc1 | 88.9 µM | 63.9 µM | 102 µM | 36.9 µM | 52.7 µM
3 | CC(C)(C)Oc1ccc(-c2nnc(SCCCN3CCN(c4nc5ccccc5s4)CC3)o2)cc1 | 202 µM | 217 µM | 71.6 µM | 67 µM | 89.3 µM
4 | Clc1ccc(-c2nnc(SCCCN3CCN(c4nc5ccccc5o4)CC3)o2)cc1 | 121 µM | 101 µM | 127 µM | 89.6 µM | 99.7 µM
5 | Oc1ccc(-c2nnc(SCCCN3CCN(c4nc5ccccc5o4)CC3)o2)cc1 | 502 µM | 99.5 µM | 181 µM | 116 µM | 260 µM
6 | c1ccc(-c2nnc(SCCCN3CCN(c4nc5ccccc5o4)CC3)o2)cc1 | 102 µM | 67 µM | 108 µM | 57.6 µM | 117 µM
7 | COc1ccc(-c2nnc(SCCCN3CCN(c4nc5ccccc5s4)CC3)o2)cc1 | 134 µM | 165 µM | 90.3 µM | 56.2 µM | 171 µM
8 | Fc1ccc(-c2nnc(SCCCN3CCN(c4nc5ccccc5o4)CC3)o2)cc1 | 83.8 µM | 196 µM | 75.7 µM | 136 µM | 52.3 µM
9 | Cc1ccc(-c2nnc(SCCCN3CCN(c4nc5ccccc5o4)CC3)o2)cc1 | 154 µM | 133 µM | 106 µM | 100 µM | 60.4 µM
10 | Cc1ccc(-c2nnc(SCCCN3CCN(c4nc5ccccc5s4)CC3)o2)cc1 | 96.7 µM | 179 µM | 53.9 µM | 61.6 µM | 107 µM
11 | Brc1ccc(-c2nnc(SCCCN3CCN(c4nc5ccccc5o4)CC3)o2)cc1 | 67.5 µM | 187 µM | 123 µM | 57.8 µM | 115 µM
12 | Clc1ccc(-c2nnc(SCCCN3CCN(c4nc5ccccc5s4)CC3)o2)cc1 | 87.7 µM | 177 µM | 110 µM | 69.2 µM | 116 µM
13 | O=C(NCc1nnc(SCCCN2CCN(c3nc4ccccc4s3)CC2)o1)c1ccccc1 | 325 µM | 78.1 µM | 88.7 µM | 55.9 µM | 39 µM
14 | CC(C)(C)Oc1ccc(-c2nnc(SCCCN3CCN(c4nc5ccccc5o4)CC3)o2)cc1 | 121 µM | 269 µM | 263 µM | 65.8 µM | 94.9 µM
15 | COc1cc(/C=C/C(=O)CC(=O)/C=C/c2ccc(O)c(OC)c2)ccc1O [CURCUMIN] | 16 µM | – | 22 µM | 22 µM | 26 µM
16 | Oc1ccc(-c2nnc(SCCCN3CCN(c4nc5ccccc5s4)CC3)o2)cc1 | 364 µM | 139 µM | 62.1 µM | 54.7 µM | 81.9 µM
17 | c1ccc(-c2nnc(SCCCN3CCN(c4nc5ccccc5s4)CC3)o2)cc1 | 217 µM | 229 µM | 257 µM | 93.4 µM | 76.9 µM
18 | Fc1ccc(-c2nnc(SCCCN3CCN(c4nc5ccccc5s4)CC3)o2)cc1 | 234 µM | 134 µM | 71.7 µM | 67 µM | 84.1 µM
19 | O=[N+]([O-])c1ccc(-c2nnc(SCCCN3CCN(c4nc5ccccc5s4)CC3)o2)cc1 | 93.3 µM | 97.8 µM | 96.6 µM | 46.5 µM | 118 µM
20 | O=[N+]([O-])c1ccc(-c2nnc(SCCCN3CCN(c4nc5ccccc5o4)CC3)o2)cc1 | 67.2 µM | 114 µM | 90.8 µM | 46.9 µM | 90.1 µM
21 | COc1ccc(-c2nnc(SCCCN3CCN(c4nc5ccccc5o4)CC3)o2)cc1 | 66.1 µM | 210 µM | 93.5 µM | 52.7 µM | 52.8 µM
